# In ChEMBL document CHEMBL2074159, “Role of organic cation transporters in the renal secretion of nucleosides” (Biochem Pharmacol, 2000):
# B1: Solute carrier family 22 member 1 (Rattus norvegicus) (protein)
# chain: MPTVDDVLEQVGEFGWFQKQAFLLLCLISASLAPIYVGIVFLGFTPGHYCQNPGVAELSQRCGWSQAEELNYTVPGLGPSDEASFLSQCMRYEVDWNQSTLDCVDPLSSLVANRSQLPLGPCEHGWVYDTPGSSIVTEFNLVCGDAWKVDLFQSCVNLGFFLGSLVVGYIADRFGRKLCLLVTTLVTSVSGVLTAVAPDYTSMLLFRLLQGMVSKGSWVSGYTLITEFVGSGYRRTTAILYQMAFTVGLVGLAGVAYAIPDWRWLQLAVSLPTFLFLLYYWFVPESPRWLLSQKRTTRAVRIMEQIAQKNGKVPPADLKMLCLEEDASEKRSPSFADLFRTPNLRKHTVILMYLWFSCAVLYQGLIMHVGATGANLYLDFFYSSLVEFPAAFIILVTIDRIGRIYPIAASNLVTGAACLLMIFIPHELHWLNVTLACLGRMGATIVLQMVCLVNAELYPTFIRNLGMMVCSALCDLGGIFTPFMVFRLMEVWQALPLILFGVLGLTAGAMTLLLPETKGVALPETIEEAENLGRRKSKAKENTIYLQVQTGKSSST
# What was measured:
# [1] = molecular target: T1, Solute carrier family 22 member 1 (Rattus norvegicus, UniProt Q63089); experiment: TP_TRANSPORTER: inhibition of TEA uptake in Xenopus laevis oocytes; format: functional, cell-based, Oocyte
# T1 sequence (Q63089 whole entry): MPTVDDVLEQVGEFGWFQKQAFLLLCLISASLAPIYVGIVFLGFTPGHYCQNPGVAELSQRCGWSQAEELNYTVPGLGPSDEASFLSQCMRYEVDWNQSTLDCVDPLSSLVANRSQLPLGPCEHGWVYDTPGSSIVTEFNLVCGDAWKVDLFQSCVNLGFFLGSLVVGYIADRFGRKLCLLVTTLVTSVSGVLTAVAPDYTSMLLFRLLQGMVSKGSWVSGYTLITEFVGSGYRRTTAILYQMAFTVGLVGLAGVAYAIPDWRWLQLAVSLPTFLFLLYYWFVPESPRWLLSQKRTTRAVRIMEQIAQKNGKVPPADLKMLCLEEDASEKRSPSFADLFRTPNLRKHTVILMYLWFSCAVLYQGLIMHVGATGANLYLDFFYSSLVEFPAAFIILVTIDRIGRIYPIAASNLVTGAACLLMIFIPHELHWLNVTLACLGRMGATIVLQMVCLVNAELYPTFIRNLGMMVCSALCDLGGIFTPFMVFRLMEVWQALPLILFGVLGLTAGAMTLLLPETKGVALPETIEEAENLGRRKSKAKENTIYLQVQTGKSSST
# [2] = molecular target: T1, Solute carrier family 22 member 1; experiment: (§1) TP_TRANSPORTER: uptake in Xenopus laevis oocytes; format: functional, cell-based; details: oocyte
# [3] = molecular target: T2, Solute carrier family 22 member 2 (Rattus norvegicus, UniProt Q9R0W2); experiment: as §1; format: functional, cell-based; details: oocyte
# T2 sequence (Q9R0W2 whole entry): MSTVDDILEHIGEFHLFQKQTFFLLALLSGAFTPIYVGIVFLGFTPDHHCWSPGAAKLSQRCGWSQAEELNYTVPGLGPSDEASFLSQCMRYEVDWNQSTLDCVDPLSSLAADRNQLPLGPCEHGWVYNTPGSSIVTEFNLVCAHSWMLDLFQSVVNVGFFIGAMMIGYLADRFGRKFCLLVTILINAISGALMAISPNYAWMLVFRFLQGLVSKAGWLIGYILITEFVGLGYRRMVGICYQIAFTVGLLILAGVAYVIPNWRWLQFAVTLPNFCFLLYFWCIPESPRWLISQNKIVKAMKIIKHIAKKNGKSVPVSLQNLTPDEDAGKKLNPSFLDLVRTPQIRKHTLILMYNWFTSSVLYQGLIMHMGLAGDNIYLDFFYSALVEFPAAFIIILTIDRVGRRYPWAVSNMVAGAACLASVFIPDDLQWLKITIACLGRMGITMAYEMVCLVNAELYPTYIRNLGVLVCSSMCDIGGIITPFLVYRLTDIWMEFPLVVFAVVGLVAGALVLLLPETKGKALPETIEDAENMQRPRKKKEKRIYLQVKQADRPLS
# [4] = molecular target: T1, Solute carrier family 22 member 1; experiment: TP_TRANSPORTER: inhibition of dTub uptake in Xenopus laevis oocytes
# [5] = substrate: CC[N+](CC)(CC)CC; experiment: cells, lysate or membranes named
Molecule,Activity [2],Activity [3],also measured
Nc1ncnc2c1ccn2[C@H]1C[C@H](O)[C@@H](CO)O1 [2'-Deoxytubercidin],–,–,Ki [1]: 19 µM
Nc1nc(Cl)nc2c1ncn2[C@H]1C[C@H](O)[C@@H](CO)O1 [CLADRIBINE],substrate [+],is not a substrate [-],–
Nc1ccn([C@@H]2O[C@H](CO)[C@@H](O)[C@@H]2O)c(=O)n1 [CYTARABINE],substrate [+],is not a substrate [-],–
CC[N+](CC)(CC)CC [TETRYLAMMONIUM],–,–,Ki [4]: 286 µM
Cc1cn([C@H]2C[C@H](N=[N+]=[N-])[C@@H](CO)O2)c(=O)[nH]c1=O [ZIDOVUDINE],substrate [+],is not a substrate [-],–
B1,–,–,Km [5]: 251 µM
